Literature values in patent US20050101642A1, “Chemical complex comprising a pyridine carboxy derivative and an H2 histamine receptor antagonist” (Astion Development ApS, priority 2000, published 2005).

Molecular target: poly(ADP-ribose)polymerase (Homo sapiens, UniProt P09874)
Sequence (P09874 whole entry): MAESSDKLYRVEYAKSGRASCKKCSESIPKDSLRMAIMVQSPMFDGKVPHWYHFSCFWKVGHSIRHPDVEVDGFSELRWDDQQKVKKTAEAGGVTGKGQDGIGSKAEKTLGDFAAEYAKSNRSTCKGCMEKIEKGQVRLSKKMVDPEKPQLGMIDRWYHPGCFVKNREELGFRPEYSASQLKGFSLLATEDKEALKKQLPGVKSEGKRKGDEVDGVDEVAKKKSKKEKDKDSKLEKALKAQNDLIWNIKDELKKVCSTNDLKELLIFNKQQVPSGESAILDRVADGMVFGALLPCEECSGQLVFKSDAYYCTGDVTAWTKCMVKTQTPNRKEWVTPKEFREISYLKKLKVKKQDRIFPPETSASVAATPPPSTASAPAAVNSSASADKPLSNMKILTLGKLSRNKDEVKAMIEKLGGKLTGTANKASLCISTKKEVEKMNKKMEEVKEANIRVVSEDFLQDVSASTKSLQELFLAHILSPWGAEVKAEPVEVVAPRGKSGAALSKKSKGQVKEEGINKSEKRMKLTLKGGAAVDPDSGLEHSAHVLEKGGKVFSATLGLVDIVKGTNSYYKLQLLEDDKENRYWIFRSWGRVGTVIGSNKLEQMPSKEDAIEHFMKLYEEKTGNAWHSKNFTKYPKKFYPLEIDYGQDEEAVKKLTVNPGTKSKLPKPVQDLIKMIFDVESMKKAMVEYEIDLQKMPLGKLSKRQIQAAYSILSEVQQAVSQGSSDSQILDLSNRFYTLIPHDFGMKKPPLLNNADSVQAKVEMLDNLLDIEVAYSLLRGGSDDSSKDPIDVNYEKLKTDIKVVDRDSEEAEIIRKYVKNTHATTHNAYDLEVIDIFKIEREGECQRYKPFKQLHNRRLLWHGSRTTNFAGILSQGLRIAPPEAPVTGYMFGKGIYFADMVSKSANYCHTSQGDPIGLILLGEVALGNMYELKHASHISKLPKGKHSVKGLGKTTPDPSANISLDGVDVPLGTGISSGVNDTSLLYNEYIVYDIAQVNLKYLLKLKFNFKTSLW

## NC(=O)c1cccnc1 [Niacinamide]
  inhibition of poly(ADP-ribose)polymerase: potent inhibitor
